Experimental data reported in patent US20240408093A1, “HETEROBIFUNCTIONAL COMPOUNDS AND THEIR USE IN TREATING DISEASE” (HALDA THERAPEUTICS OPCO, INC., priority 2022, published 2024).
Like-named read-outs stand apart in the source and are kept apart here.

Experiments:
GSPT1 = assay: Payload release assay (DC50 readout), GSPT1 degradation in the presence of recombinant target protein; format: cell-based; details: I-series compounds (GSPT1 readout inferred)
Method: Exemplary compounds were tested for ability to cause degradation of CCNK or GSPT1 in the presence of recombinant target protein.
HEK293 LgBiT/GSPT1 HiBiT CRISPR Knock-in cells (Promega) were cultured in DMEM (Gibco 11995), supplemented with 10% Heat-inactivated FBS (Gibco A38400-01) and 1% Penicillin/Streptomycin (Gibco 15140-122) and 200 Vg/ml Hygromycin B (Gibco 10-687-010) at 37° C. with 5% CO2 in a humidified tissue culture incubator. HEK293 LgBiT/CCNK HiBiT cells (in-house, described above) were cultured in DMEM (Gibco 11995), supplemented with 10% Heat-inactivated FBS (Gibco A38400-01) and 1% Penicillin/Streptomycin (Gibco 15140-122) 200 Vg/ml Hygromycin B (Gibco 10-687-010), and 1 Vg/ml Puromycin Dihydrochloride (Thermo A1113803) at 37° C. with 5% CO2 in a humidified tissue culture incubator. Cells were seeded (1000 cells/well for HEK293 LgBiT/GSPT1 HiBiT cells or 3000 cells/well for HEK293 LgBiT/CCNK HiBiT cells) 384-well, tissue culture-treated white plates (Perkin Elmer 6007680) in 10 μL media lacking selection for 18-24 hours. Plates were spun at 300 g for 30 seconds and stored in the incubator overnight. After 24 hours, a 5 μL aliquot of recombinant target protein (final concentration of either 5 μM KRAS amino acids 1-169, C51S, C80L, C118S, G12C or 3 μM EGFR amino acids 696-1022 or 3 μM EGFR amino acids 696-1022, T790M, L858R) was added to wells, followed immediately by a 5 μL aliquot of 4× compound-containing medium supplemented with Endurazine Substrate (Promega N2570) was added in each well, at a final top concentration of 10 μM test compound and 0.5× Endurazine, with 4-fold dilutions, using DMSO alone as a negative control. Plates were then spun at 300×g for 3 minutes again and cultured at 37° C. with 5% CO2. After 6 hours the plate was read on Envision MultiMode Plate Reader 2105 (Perkin Elmer) to measure luminescence signal. Data was normalized to DMSO treated cell wells. A four-parameter non-linear regression curve fit was applied to dose-response data in Prism to determine the half maximal growth inhibitory concentration (GI50) of each compound.

KRAS G12C = KRAS G12C (Homo sapiens, UniProt P01116, G12C); assay: KRAS G12C cellular target engagement assay (SW1573 cells); format: cell-based; design: host or cells: SW1573; details: 17 hours, read-out: TE50 (the source's name)
Sequence of KRAS G12C (P01116 1-188 isoform P01116-2 G12C): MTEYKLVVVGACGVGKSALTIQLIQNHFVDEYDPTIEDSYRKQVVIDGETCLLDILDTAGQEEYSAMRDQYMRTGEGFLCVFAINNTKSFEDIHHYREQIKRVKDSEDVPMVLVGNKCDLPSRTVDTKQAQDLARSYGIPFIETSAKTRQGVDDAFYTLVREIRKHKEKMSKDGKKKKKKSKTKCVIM
Method: SW1573 cells (ATCC CRL-2170) were cultured in RPMI 1640 (Gibco A1049101), supplemented with 10% Heat-inactivated FBS (Gibco Cat. #A38400-01) and 1% Penicillin/Streptomycin (Gibco Cat. #15140-122) in an incubator set at 37° C. and 5% CO2. Cells were seeded at 100,000 cells/ml in 1 ml of complete media in a 24-well, tissue culture-treated plate (Falcon 353226) and incubated overnight. Cells were treated with increasing concentrations of compound and let incubate at 37C and 5% CO2 for 17 hours, after which media was aspirated and cells were lysed in 75 uL RIPA Lysis and Extraction Buffer (Thermo 89901) supplemented with 5 mM MgCl2, Protease and Phosphatase inhibitor cocktail (Thermo 1861281), and Universal Nuclease (Thermo 88700). Plates with RIPA were shaken at 4° C. at 600 rpm for 15 min. After shaking samples, they were collected and spun down at 21,000 g for 15 min at 4° C. Following centrifugation, ˜10 ug of lysate was added to Laemmli Sample Buffer (Bio-Rad 1610747) plus 10% beta-mercaptoethanol, boiled for 15 minutes at 65° C. and loaded onto 12% Mini-PROTEAN TGX™ Precast Protein Gels (Bio-Rad). Protein was transferred to a nitrocellulose membrane (Thermo LC2000) using the iBlot 2 Dry Blotting System (Thermo). After transfer, membranes were washed in 1× TBST (Bioland Scientific LLC TBST0103) 3× for 5 min. Following the wash, blocking buffer (Rockland MB-070) was added for 1 hour at room temperature. Primary antibodies against KRAS (LifeSpan Bio LS-C175665) and actin (Cell Signaling Technology 8457) were added overnight at 4° C. Membranes were then washed again 3× for 5 min in 1× TBST. Secondary antibodies (LI-COR 926-68072 and 926-68073) were added and shaken for 1 hr at room temperature. Membranes were then washed 3× for 5 min in 1×TBST and developed. Membranes were placed on an Odyssey imager (LI-COR).

[1] = 0 μM recombinant KRAS G12C, read-out: DC50 at 0 μM KRAS G12C
[2] = 5 μM recombinant KRAS G12C, read-out: DC50 at 5 μM KRAS G12C
[3] = 0 μM recombinant EGFR T790M L858R, read-out: DC50 at 0 μM EGFR T790M L858R
[4] = 0 μM recombinant EGFR WT, read-out: DC50 at 0 μM EGFR WT
[5] = 3 μM recombinant EGFR T790M L858R, read-out: DC50 at 3 μM EGFR T790M L858R
[6] = 3 μM recombinant EGFR WT, read-out: DC50 at 3 μM EGFR WT

Row | SMILES | DC50 (GSPT1; [3]) | DC50 (GSPT1; [4]) | DC50 (GSPT1; [5]) | DC50 (GSPT1; [6]) | DC50 (GSPT1; [1]) | DC50 (GSPT1; [2]) | EC50 (KRAS G12C)
1 | C=C(COc1ccc(CN2C(=O)CCC(N3Cc4cc(CNC(=O)Nc5ccc(C)c(Cl)c5)ccc4C3=O)C2=O)cc1)C(=O)N1CCN(c2nc(OC[C@H]3CCCN3C)nc3c2CCN(c2cccc4cccc(Cl)c24)C3)C[C@@H]1CC#N (stereo in doubt) [Compound I-44] |  |  |  |  | > 10000 nM | 250 to 5000 nM | 250 to 5000 nM
2 | C=C(COc1cc(Cl)cc(NC(=O)NCc2ccc3c(c2)CN(C2CCC(=O)NC2=O)C3=O)c1)C(=O)N1CCN(c2nc(OC[C@@H]3CCCN3C)nc3c2CCN(c2cccc4cccc(Cl)c24)C3)C[C@@H]1CC#N (stereo partly drawn) [Compound I-35] |  |  |  |  | 250 to 5000 nM | < 250 nM | 250 to 5000 nM
3 | C=C(COc1cc(Cl)c(OC)cc1NC(=O)NCc1ccc2c(c1)CN(C1CCC(=O)NC1=O)C2=O)C(=O)N1CCN(c2nc(OC[C@@H]3CCCN3C)nc3c2CCN(c2cccc4cccc(Cl)c24)C3)C[C@@H]1CC#N (stereo partly drawn) [Compound I-46] |  |  |  |  | 250 to 5000 nM | < 250 nM | 250 to 5000 nM
4 | C=C(COc1ccc(Cl)cc1NC(=O)NCc1ccc2c(c1)CN(C1CCC(=O)NC1=O)C2=O)C(=O)N[C@@H]1CN(c2nc(Nc3cn(C)nc3OC)c3ncn(C)c3n2)C[C@H]1F (stereo partly drawn) [Compound I-47] | < 250 nM | < 250 nM | < 250 nM | < 250 nM |  |  | 
5 | C=C(COc1cc(NC(=O)NCc2ccc3c(c2)CN(C2CCC(=O)NC2=O)C3=O)cc(C(F)(F)F)c1)C(=O)N1CCN(c2nc(OC[C@@H]3CCCN3C)nc3c2CCN(c2cccc4cccc(Cl)c24)C3)C[C@@H]1CC#N (stereo partly drawn) [Compound I-48] |  |  |  |  | 250 to 5000 nM | 250 to 5000 nM | 250 to 5000 nM
6 | C=C(COc1cccc(NC(=O)NCc2ccc3c(c2)CN(C2CCC(=O)NC2=O)C3=O)c1)C(=O)N1CCN(c2nc(OC[C@@H]3CCCN3C)nc3c2CCN(c2cccc4cccc(Cl)c24)C3)C[C@@H]1CC#N (stereo partly drawn) [Compound I-49] |  |  |  |  | 250 to 5000 nM | > 10000 nM | < 250 nM
7 | C=C(COc1cc(NC(=O)NCc2ccc3c(c2)CN(C2CCC(=O)NC2=O)C3=O)cc(OC)c1)C(=O)N1CCN(c2nc(OC[C@@H]3CCCN3C)nc3c2CCN(c2cccc4cccc(Cl)c24)C3)C[C@@H]1CC#N (stereo partly drawn) [Compound I-50] |  |  |  |  | 250 to 5000 nM | 250 to 5000 nM | 250 to 5000 nM
8 | C=C(COc1ccc(Cl)cc1NC(=O)NCc1ccc2c(c1)CN(C1CCC(=O)NC1=O)C2=O)C(=O)N1CCN(c2nc(OC[C@@H]3CCCN3C)nc3c2CCN(c2cccc4cccc(Cl)c24)C3)C[C@@H]1CC#N (stereo partly drawn) [Compound I-52] |  |  |  |  | 250 to 5000 nM | < 250 nM | 250 to 5000 nM
9 | C=C(COc1c(Cl)cccc1NC(=O)NCc1ccc2c(c1)CN(C1CCC(=O)NC1=O)C2=O)C(=O)N[C@@H]1CN(c2nc(Nc3cn(C)nc3OC)c3ncn(C)c3n2)C[C@H]1F (stereo partly drawn) [Compound I-69] | < 250 nM | < 250 nM | < 250 nM | < 250 nM |  |  | 
10 | C=C(CN(C(=O)NCc1ccc2c(c1)CN(C1CCC(=O)NC1=O)C2=O)c1ccc(C)c(Cl)c1)C(=O)N1C[C@@H](COc2nc(Nc3cnn(C)c3)nc3[nH]cc(Cl)c23)[C@H](OC)C1 (stereo partly drawn) [Compound I-71] | 250 to 5000 nM | 250 to 5000 nM | 250 to 5000 nM | 250 to 5000 nM |  |  | 
11 | C=C(COc1cc(-c2ccccn2)ccc1CNc1nc(N[C@H](CC)CO)nc2c1ncn2C(C)C)C(=O)N1CCN(c2nc(OC[C@@H]3CCCN3C)nc3c2CCN(c2cccc4cccc(Cl)c24)C3)C[C@@H]1CC#N [II-186] |  |  |  |  |  |  | 250 to 5000 nM
12 | C=C(CN1CCN(c2nc(NCc3nc4cc(C)ccc4[nH]3)n3ncc(Br)c3n2)CC1)C(=O)N1CCN(c2nc(OC[C@@H]3CCCN3C)nc3c2CCN(c2cccc4cccc(Cl)c24)C3)C[C@@H]1CC#N [II-190] |  |  |  |  |  |  | 250 to 5000 nM

More lines, main results first:

Row | DC50 (GSPT1; [3]) | DC50 (GSPT1; [4]) | DC50 (GSPT1; [5]) | DC50 (GSPT1; [6]) | SMILES | DC50 (GSPT1; [1]) | DC50 (GSPT1; [2]) | EC50 (KRAS G12C)
13 | 250 to 5000 nM | 5000 to 10000 nM | < 250 nM | < 250 nM | C=C(CN(C(=O)NCc1ccc2c(c1)CN(C1CCC(=O)NC1=O)C2=O)c1ccc(C)c(Cl)c1)C(=O)Nc1cc(Nc2ncc(-c3cn(C)c4ccccc34)cn2)c(OC)cc1N(C)CCN(C)C (stereo not drawn) [Compound I-42] |  |  | 
14 | < 250 nM | < 250 nM | < 250 nM | < 250 nM | C=C(COc1cc(Cl)cc(NC(=O)NCc2ccc3c(c2)CN(C2CCC(=O)NC2=O)C3=O)c1)C(=O)N[C@@H]1CN(c2nc(Nc3cn(C)nc3OC)c3ncn(C)c3n2)C[C@H]1F (stereo partly drawn) [Compound I-45] |  |  | 
15 | < 250 nM | < 250 nM | < 250 nM | < 250 nM | C=C(COc1cc(Cl)cc(NC(=O)NCc2ccc3c(c2)CN(C2CCC(=O)NC2=O)C3=O)c1)C(=O)N1C[C@H](COc2nc(Nc3cnn(C)c3)nc3[nH]cc(Cl)c23)[C@@H](OC)C1 (stereo partly drawn) [Compound I-54] |  |  | 
16 | < 250 nM | < 250 nM | < 250 nM | 250 to 5000 nM | C=C(COc1cc(Cl)cc(NC(=O)NCc2ccc3c(c2)CN(C2CCC(=O)NC2=O)C3=O)c1)C(=O)Nc1cccc(Oc2nc(Nc3ccc(N4CCN(C)CC4)cc3)nc3ccsc23)c1 (stereo not drawn) [Compound I-55] |  |  | 
17 | < 250 nM | < 250 nM | < 250 nM | < 250 nM | C=C(COc1cc(Cl)cc(NC(=O)NCc2ccc3c(c2)CN(C2CCC(=O)NC2=O)C3=O)c1)C(=O)Nc1cc(Nc2nccc(-c3cn(C)c4ccccc34)n2)c(OC)cc1N(C)CCN(C)C (stereo not drawn) [Compound I-59] |  |  | 
18 | 250 to 5000 nM | 250 to 5000 nM | 250 to 5000 nM | 250 to 5000 nM | C=C(COc1c(Cl)cccc1NC(=O)NCc1ccc2c(c1)CN(C1CCC(=O)NC1=O)C2=O)C(=O)Nc1cc(Nc2nccc(-c3cn(C)c4ccccc34)n2)c(OC)cc1N(C)CCN(C)C (stereo not drawn) [Compound I-60] |  |  | 
19 | < 250 nM | < 250 nM | < 250 nM | < 250 nM | C=C(COc1cc(Cl)cc(NC(=O)NCc2ccc3c(c2)CN(C2CCC(=O)NC2=O)C3=O)c1)C(=O)Nc1cccc(-c2cccc3cnc(Nc4ccc(N5CCN(CCO)CC5)c(F)c4F)nc23)c1 (stereo not drawn) [Compound I-61] |  |  | 
20 | 250 to 5000 nM | 250 to 5000 nM | 250 to 5000 nM | 250 to 5000 nM | C=C(CN(C(=O)NCc1ccc2c(c1)CN(C1CCC(=O)NC1=O)C2=O)c1ccc(C)c(Cl)c1)C(=O)Nc1cccc(Oc2nc(Nc3ccc(N4CCN(C)CC4)cc3)nc3ccsc23)c1 (stereo not drawn) [Compound I-70] |  |  | 
21 | < 250 nM | < 250 nM |  |  | C=C(CN1C(=O)CCC(N2Cc3cc(CNC(=O)Nc4ccc(C)c(Cl)c4)ccc3C2=O)C1=O)C(=O)Nc1cc(Nc2ncc(-c3cn(C)c4ccccc34)cn2)c(OC)cc1N(C)CCN(C)C (stereo not drawn) [Compound I-87] |  |  | 
